Patent US20240033264A1, “CDK INHIBITORS” (QILU REGOR THERAPEUTICS INC., priority 2020, published 2024)
Each block holds one molecule with its values, some of them ahead of it.

Key:
CDK4/CyclinD1 = CDK4/CyclinD1 (Homo sapiens (Human), UniProt P11802); assay: Assay for inhibition of CDK4/CyclinD1 (Caliper microfluidic kinase assay); format: biochemical; conditions: summary statement
Procedure: (§1) The CDK4 enzyme assay for IC50 determination was performed as follows. Microfluidic kinase detection technology (Caliper) was used to monitor the phosphorylation of peptide substrate by CDK4/CyclinD1. The total reaction volume was 15 μL containing buffer A (100 mM HEPES (pH 7.5), 0.1% BSA, 0.01% Triton X-100, 1 mM DTT, 10 mM MgCl2, 10 μM Sodium Orthovanadate, 10 μM Beta-Glycerophosphate), 200 μM ATP, 1 nM CDK4/CyclinD1 (Thermofisher, PR8064A), 1 μM FL-34 (5-FAM-[…]), and the test compound at appropriate dilutions in DMSO. All components were added to the 384-well plate (Corning, 4514), and incubated at Room Temperature for 3 hours. The reaction was terminated by addition of 15 μL Stop Buffer (180 mM HEPES (pH 7.5), 20 mM EDTA, Coating-3 reagent (PerkinElmer, 760050)). The plate was then loaded on Caliper EZ Reader (EZ Reader II, PerkinElmer, HD-4HYSG2772), and the reaction mixtures including substrate and product were sipped into the microfluidic chip for separation and detection. The IC50 values of the test compound were determined by fitting the inhibition curves by 4 parameter sigmoidal dose-response model using the Xlfit5/GraphPad Prism 5 software.

CDK2/CyclinE1 = CDK2/CyclinE1 (Homo sapiens (Human), UniProt P24941); assay: Assay for inhibition of CDK2/CyclinE1 (Caliper microfluidic kinase assay); format: biochemical; conditions: summary statement
Procedure: The CDK2 enzyme assay for IC50 determination was performed as follows. Microfluidic kinase detection technology (Caliper) was used to monitor the phosphorylation of peptide substrate by CDK2/CyclinE1. The total reaction volume was 15 μL containing buffer A (100 mM HEPES (pH 7.5), 0.1% BSA, 0.01% Triton X-100, 1 mM DTT, 10 mM MgCl2, 10 μM Sodium Orthovanadate, 10 μM Beta-Glycerophosphate), 100 μM ATP, 5 nM CDK2/CyclinE1 (SignalChem, C29-18G), 5 μM FL-18 (5-FAM-QSPKKG-NH2), and the test compound at appropriate dilutions in DMSO. All components were added to the 384-well plate (Corning, 4514), and incubate at Room Temperature for 3 hours. The reaction was terminated by addition of 15 μL Stop Buffer (180 mM HEPES (pH 7.5), 20 mM EDTA, Coating-3 reagent (PerkinElmer, 760050)). The plate was loaded on Caliper EZ Reader (EZ Reader II, PerkinElmer, HD-4HYSG2772), and the reaction mixtures including substrate and product were sipped into the microfluidic chip for separation and detection. The IC50 values of the test compound were determined by fitting the inhibition curves by 4 parameter sigmoidal dose-response model using the Xlfit5/GraphPad Prism 5 software.

T47D breast cancer cells = assay: Anti-proliferation assay in T47D cell (Cyquant); format: cell-based, human; conditions: for IC50: Homo sapiens, T47D, 144 h, anti-proliferation, day 6 after compound addition
Excerpt: T47D is a human breast cancer cell line commonly used in biomedical research involving the hormonal expression of cancer cells. T47D cells are distinct from other human breast cancer cells in that their progesterone receptors (PR) are not regulated by estradiol, a hormone that is abundant within the cells themselves. T47D cells have been employed in studies of the effects of progesterone on breast cancer and the corresponding transcriptional regulation caused by introduced drugs. The cells have been noted to be extremely resistant to estrogens and antiestrogens.
T47D breast cancer cells from American Type Culture Collection (ATCC, HTB-133) were plated at 3000 cells/well in 96-well plates, and were incubated in RPMI 1640 medium (Gibco, 31800105) with 10% Fetal Bovine Serum (FBS, Biowest, FB-1058) at 37° C., 5% CO2. After overnight incubation, baseline values were measured of the samples from one plate using Cyquant reagent (Invitrogen, C35011) following manufacturer's recommendations. Cells were incubated with the detection reagent for 1 hour at 37° C., and then the fluorescence was measured with excitation at 485 nm and emission at 535 nm using Spectra Max M5 (Molecular Devices, HD-4HYSG3196). Other plates were dosed with compounds at a ten-point dose concentration from 10 μM to 0.51 nM in a 3-fold dilution scheme. On day 6 after compound addition, Cyquant reagent was added and the fluorescence was measured using Spectra Max M5. The IC50 values of the test compound's anti-proliferation activity were determined from the baseline subtracted viability readout curve using Xlfit5/GraphPad Prism 5 software.

CDK6/CyclinD3 = CDK6/CyclinD3 (Homo sapiens (Human), UniProt Q00534); assay: Assay for inhibition of CDK6/CyclinD3 (Caliper microfluidic kinase assay); format: biochemical; conditions: summary statement
CDK6/CyclinD3, sequence (Q00534 whole entry): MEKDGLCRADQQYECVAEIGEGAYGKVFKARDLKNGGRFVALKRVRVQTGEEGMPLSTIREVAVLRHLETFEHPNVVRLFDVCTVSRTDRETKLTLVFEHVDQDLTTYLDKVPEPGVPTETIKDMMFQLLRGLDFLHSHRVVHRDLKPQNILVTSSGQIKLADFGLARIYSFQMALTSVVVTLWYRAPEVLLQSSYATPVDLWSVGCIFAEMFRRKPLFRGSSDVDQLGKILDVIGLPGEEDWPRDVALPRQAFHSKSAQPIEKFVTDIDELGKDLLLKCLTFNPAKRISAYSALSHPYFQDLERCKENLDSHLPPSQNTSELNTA
CDK6/CyclinD3, sequence (P30281 whole entry partner): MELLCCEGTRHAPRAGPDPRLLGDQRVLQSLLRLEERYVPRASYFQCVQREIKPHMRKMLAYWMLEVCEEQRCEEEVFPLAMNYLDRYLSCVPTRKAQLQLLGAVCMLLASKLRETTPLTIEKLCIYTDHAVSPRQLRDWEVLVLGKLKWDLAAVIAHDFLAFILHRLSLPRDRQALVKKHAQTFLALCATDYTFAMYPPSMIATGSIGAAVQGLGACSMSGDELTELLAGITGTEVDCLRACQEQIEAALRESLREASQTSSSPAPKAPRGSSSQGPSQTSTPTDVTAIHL
Procedure: as §1, with “The CDK6” for “The CDK4”, “by CDK6/CyclinD3.” for “by CDK4/CyclinD1.”, “volume is” for “volume was”, “Beta-Glycerophosphate), 300” for “Beta-Glycerophosphate), 200”, “ATP, 2” for “ATP, 1”, “nM CDK6/CyclinD3 (Carna, 04-107),” for “nM CDK4/CyclinD1 (Thermofisher, PR8064A),”

[1] = Brain penetration (stated in summary, no method); conditions: summary statement
[2] = test system: Phosphorylation of Retinoblastoma Protein (pRb) Ser807/811 in T47D cell; assay: Inhibition of phosphorylation of retinoblastoma protein (pRb) in T47D cell (ELISA); format: cell-based; conditions: Homo sapiens, 24 hours incubation, read-out: Phospho T47D Ser807 IC50
Procedure: T47D breast cancer cells from American Type Culture Collection (ATCC, HTB-133) were plated at 40,000 cells/well in 96-well plates, and were incubated in RPMI 1640 medium (Gibco, 31800105) with 10% Fetal Bovine Serum (FBS, Biowest, FB-1058). Cells were then allowed to adhere overnight at 37° C., 5% CO2. The following day, compounds were titrated in a 3-fold dilution scheme, and the highest compound concentration tested was […]. After 24 hours incubation with compounds, cells were lysed in ice-cold lysis buffer containing phosphatase inhibitor cocktail and 1 mM PMSF. Cell lysates (50 μL/well) were then transferred to ELISA plates (pRb Ser807/811 ELISA kit, Cell Signaling, 13152 or pRb Ser780 ELISA kit, Cell Signaling, 13016)). Plates were incubated overnight at 4° C., with constant slow speed shaking. After incubation, plates were washed following manufacturer's recommendations, and then 100 μL reconstituted detection antibody was added to each well and incubated for 1 hour at 37° C. After incubation, plates were washed, and then 100 μL reconstituted HRP-linked secondary antibody was added to each well and incubated for 30 mins at 37° C. […] Plates were read on the Envision plate reader (PerkinElmer, 2104-0010) using the 96-well […] mode. IC50 values were calculated using 4 parameter sigmoidal dose-response model of Xlfit5/GraphPad Prism 5 software.

CDK4/CyclinD1, sequence (P11802 whole entry): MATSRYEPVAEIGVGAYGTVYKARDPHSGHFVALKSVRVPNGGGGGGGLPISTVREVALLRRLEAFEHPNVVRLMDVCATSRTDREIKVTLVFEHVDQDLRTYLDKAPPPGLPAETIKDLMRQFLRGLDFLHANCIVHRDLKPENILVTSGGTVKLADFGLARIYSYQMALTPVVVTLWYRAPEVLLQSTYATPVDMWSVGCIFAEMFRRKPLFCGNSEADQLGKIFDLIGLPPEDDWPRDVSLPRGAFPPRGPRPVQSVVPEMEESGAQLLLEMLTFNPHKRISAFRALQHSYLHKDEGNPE
CDK4/CyclinD1, sequence (P24385 whole entry partner): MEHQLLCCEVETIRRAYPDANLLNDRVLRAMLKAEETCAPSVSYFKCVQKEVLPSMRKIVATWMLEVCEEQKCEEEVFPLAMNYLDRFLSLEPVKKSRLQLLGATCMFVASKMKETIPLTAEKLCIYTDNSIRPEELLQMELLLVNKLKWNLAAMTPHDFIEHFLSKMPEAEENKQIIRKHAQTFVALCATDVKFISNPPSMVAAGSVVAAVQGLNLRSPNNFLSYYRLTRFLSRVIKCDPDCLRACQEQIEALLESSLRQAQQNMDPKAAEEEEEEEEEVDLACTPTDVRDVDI

Compound: CC(C)c1cnn2ccc(-c3ccnc(Nc4ccc(N5CC[C@H](N(C)C)CC5=O)cn4)n3)cc12 [Compound A]
- inhibition of CDK4 (in words) (CDK4/CyclinD1): actively inhibits
- inhibition of CDK2 (in words) (CDK2/CyclinE1): actively inhibits
- anti-proliferation activities (in words) (T47D breast cancer cells; summary statement): strong
- inhibition of CDK6 (in words) (CDK6/CyclinD3): actively inhibits

Compound: CC(C)N1CCN(c2ccc(Nc3nccc(-c4cc5c(ncn5C(C)C)c(F)n4)n3)nc2)CC1 [Compound B]
- selectivity of CDK4 inhibition (in words) (CDK4/CyclinD1): selectively inhibit
- brain penetration (in words) [1]: excellent

Compound: CC(C)c1cnn2ccc(-c3ccnc(Nc4ccc(N5CCC(N(C)C)CC5=O)cn4)n3)cc12 (centres unmarked) [Synthetic Example 1]
- IC50 (T47D breast cancer cells): < 0.1 µM

- IC50 (T47D breast cancer cells): < 0.1 µM
Compound: CC(C)c1cnn2ccc(-c3ccnc(Nc4ccc(N5CC[C@@H](N(C)C)CC5=O)cn4)n3)cc12 [Synthetic Example 2]

Compound: CC(C)c1cnn2ccc(-c3ccnc(Nc4ccc(N5CC[C@H](N(C)C)CC5=O)cn4)n3)cc12 [Synthetic Example 3]
- IC50 (T47D breast cancer cells): < 0.1 µM
- IC50 [2]: < 0.1 µM

Compound: CC(C)N1CCN(c2ccc(Nc3nccc(-c4cc5c(ncn5C(C)C)c(F)n4)n3)nc2)CC1 [Synthetic Example 4]
- IC50 (T47D breast cancer cells): < 0.1 µM
